Assay results taken from the supplement of paper PMC11061612.

How the values were obtained:
Experiment in all cases: combination Emax (second highest fraction inhibited in the dose matrix, 72 h); higher = more inhibition; extreme values may be limits of the assay
[1] = tested on: A2780 (Ovarian Carcinoma)
Method in brief: (§1)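 Bliss excess equals the observed combination effect minus the expected value EA + EB − EA·EB, where EA and EB are the effects of each agent alone. Combination Emax is the second-highest inhibition within the matrix. Inhibition was scaled from CellTiter-Glo 2.0 luminescence, with 0 set by vehicle wells and 1 by blank wells, after 72 hours of two-drug dosing of cells plated in 1536-well plates.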

[2] = tested on: CGTH-W-1 (Thyroid Gland Carcinoma)
Method in brief: as §1

EB2 (Burkitt's Lymphoma) = tested on: EB2 (Burkitt's Lymphoma)
Method in brief: as §1

IM-9 (Non-Cancerous) = tested on: IM-9 (Non-Cancerous)
Method in brief: as §1

[3] = tested on: MHH-ES-1 (Ewing's Sarcoma)
Method in brief: as §1

[4] = tested on: NCI-H1651 (Lung Adenocarcinoma)
Method in brief: as §1

[5] = tested on: NCI-H2087 (Lung Adenocarcinoma)
Method in brief: as §1

[6] = tested on: NCI-H441 (Lung Adenocarcinoma)
Method in brief: as §1

[7] = tested on: UACC-812 (Breast Carcinoma)
Method in brief: as §1

SMILES | combination Emax [1] | combination Emax [2] | combination Emax (EB2 (Burkitt's Lymphoma)) | combination Emax (IM-9 (Non-Cancerous)) | combination Emax [3] | combination Emax [4] | combination Emax [5] | combination Emax [6] | combination Emax [7]
C[C@@H](Nc1cc(F)cc(F)c1)c1cc(C(=O)N(C)C)cc2c(=O)cc(N3CCOCC3)oc12 [AZD8186] + CC(=O)c1c(C)c2cnc(Nc3ccc(N4CCNCC4)cn3)nc2n(C2CCCC2)c1=O [Palbociclib] (first compound max 10 µM, 7x7, partner max 10 µM) | 0.835 | 0.311 | 0.582 | 0.682 | 0.602 | 0.17 | 0.24 | 0.447 | 0.389
C[C@@H]1COCCN1c1cc(C2([S@](C)(=N)=O)CC2)nc(-c2ccnc3[nH]ccc23)n1 [AZD6738] + C1CC(C1)(C(=O)[O-])C(=O)[O-].N.N.[Pt+2] [Carboplatin] (first compound max 10 µM, 7x7, partner max 10 µM) | 0.81 | 0.302 | 0.76 | 0.966 | 0.51 | 0.641 | 0.564 | 0.394 | 0.381
CC1(C)CCC(CN2CCN(c3ccc(C(=O)NS(=O)(=O)c4ccc(NCC5CCOCC5)c([N+](=O)[O-])c4)c(Oc4cnc5[nH]ccc5c4)c3)CC2)=C(c2ccc(Cl)cc2)C1 [Venetoclax] + CS(=O)(=O)CCNCc1ccc(-c2ccc3ncnc(Nc4ccc(OCc5cccc(F)c5)c(Cl)c4)c3c2)o1 [Lapatinib] (first compound max 1 µM, 7x7, partner max 10 µM) | 0.478 | 0.115 | 0.348 | 0.958 | 0.371 | 0.129 | 0.0976 | 0.165 | 0.471
C[C@@H](Oc1cc(-c2cnn(C3CCNCC3)c2)cnc1N)c1c(Cl)ccc(F)c1Cl [Crizotinib] + CC1=C(C(=CC=C1)Cl)NC(=O)C2=CN=C(S2)NC3=CC(=NC(=N3)C)N4CCN(CC4)CCO [Dasatinib] (first compound max 10 µM, 7x7, partner max 2 µM) | 0.882 | 0.961 | 0.591 | 0.974 | 0.77 | 0.29 | 0.39 | 0.63 | 0.181
C[C@@H](Oc1cc(-c2cnn(C3CCNCC3)c2)cnc1N)c1c(Cl)ccc(F)c1Cl [Crizotinib] + Cn1cnc2c(F)c(Nc3ccc(Br)cc3Cl)c(C(=O)NOCCO)cc21 [Selumetinib] (first compound max 10 µM, 7x7, partner max 10 µM) | 0.922 | 0.213 | 0.566 | 1 | 0.889 | 0.0815 | 0.587 | 0.415 | 0.154
CS(=O)(=O)CCNCc1ccc(-c2ccc3ncnc(Nc4ccc(OCc5cccc(F)c5)c(Cl)c4)c3c2)o1 [Lapatinib] + Cn1cnc2c(F)c(Nc3ccc(Br)cc3Cl)c(C(=O)NOCCO)cc21 [Selumetinib] (first compound max 10 µM, 7x7, partner max 10 µM) | 0.684 | 0.245 | 0.324 | 0.994 | 0.401 | 0.151 | 0.575 | 0.32 | 0.5
C[C@@H]1COCCN1c1cc(C2([S@](C)(=N)=O)CC2)nc(-c2ccnc3[nH]ccc23)n1 [AZD6738] + Nc1ccn([C@@H]2O[C@H](CO)[C@@H](O)C2(F)F)c(=O)n1 [Gemcitabine] (first compound max 10 µM, 7x7, partner max 0.3 µM) | 0.95 | 0.947 | 0.942 | 1 | 0.995 | 0.747 | 0.699 | 0.568 | 0.66
C[C@@H](Nc1cc(F)cc(F)c1)c1cc(C(=O)N(C)C)cc2c(=O)cc(N3CCOCC3)oc12 [AZD8186] + C1CN(CCC1(C(=O)N[C@@H](CCO)C2=CC=C(C=C2)Cl)N)C3=NC=NC4=C3C=CN4 [AZD5363] (first compound max 10 µM, 7x7, partner max 10 µM) | 0.784 | 0.316 | 0.552 | 0.57 | 0.358 | 0.112 | 0.195 | 0.28 | 0.333
O=C(c1cc(Cc2n[nH]c(=O)c3ccccc23)ccc1F)N1CCN(C(=O)C2CC2)CC1 [Olaparib] + CN(CC[C@H](CSC1=CC=CC=C1)NC2=C(C=C(C=C2)S(=O)(=O)NC(=O)C3=CC=C(C=C3)N4CCC(CC4)[C@H](C5=CC=CC=C5C6=CC=C(C=C6)Cl)O)S(=O)(=O)C(F)(F)F)CCO [AZD4320] (first compound max 10 µM, 7x7, partner max 1 µM) | 0.511 | 0.0708 | 0.13 | 0.924 | 0.952 | 0.299 | 0.413 | 0.213 | 0.251
CN(CCO)CC[C@H](CSc1ccccc1)Nc1ccc(S(=O)(=O)NC(=O)c2ccc(N3CCC([C@@H](O)c4ccccc4-c4ccc(Cl)cc4)CC3)cc2)cc1S(=O)(=O)C(F)(F)F [AZD4320] + CS(=O)(=O)CCNCc1ccc(-c2ccc3ncnc(Nc4ccc(OCc5cccc(F)c5)c(Cl)c4)c3c2)o1 [Lapatinib] (first compound max 1 µM, 7x7, partner max 10 µM) | 0.492 | 0.273 | 0.293 | 0.974 | 0.973 | 0.396 | 0.541 | 0.479 | 0.616
O=C(c1cc(Cc2n[nH]c(=O)c3ccccc23)ccc1F)N1CCN(C(=O)C2CC2)CC1 [Olaparib] + COc1nnc2ccc(N3CCC(c4ccc(OCCN5CCN(C)C(=O)[C@H]5C)cc4)CC3)nn12 [AZD5153] (first compound max 10 µM, 7x7, partner max 1 µM) | 0.774 | 0.218 | 0.484 | 0.752 | 0.905 | 0.367 | 0.39 | 0.353 | 0.376
Cc1nc(-c2cn3c(n2)-c2ccc(-c4cnn(C(C)(C)C(N)=O)c4)cc2OCC3)n(C(C)C)n1 [Taselisib] + O=C(Nc1ccc2[nH]nc(-c3ccncc3)c2c1)[C@@H]1CCN(CC(=O)N2CCN(c3ccc(-c4ncccn4)cc3)CC2)C1 [SCH772984] (first compound max 10 µM, 7x7, partner max 5 µM) | 0.976 | 0.977 | 0.563 | 0.851 | 0.609 | 0.24 | 0.71 | 0.562 | 0.428
C=CCn1c(=O)c2cnc(Nc3ccc(N4CCN(C)CC4)cc3)nc2n1-c1cccc(C(C)(C)O)n1 [AZD1775] + Nc1ccn([C@@H]2O[C@H](CO)[C@@H](O)C2(F)F)c(=O)n1 [Gemcitabine] (first compound max 1 µM, partner max 0.3 µM) | 0.963 | 0.761 | 0.942 | 1 | 0.983 | 0.762 | 0.6 | 0.55 | 0.626
Cc1c2c(nn1C)CSCc1cc(n(C)n1)CSc1cc(c3ccccc3c1)OCCCc1c(C(=O)O)n(C)c3c-2c(Cl)ccc13 [AZD5991] + CS(=O)(=O)CCNCc1ccc(-c2ccc3ncnc(Nc4ccc(OCc5cccc(F)c5)c(Cl)c4)c3c2)o1 [Lapatinib] (first compound max 1 µM, 7x7, partner max 10 µM) | 0.933 | 0.221 | 0.283 | 0.93 | 0.58 | 0.307 | 0.275 | 0.229 | 0.929
Cc1c2c(nn1C)CSCc1cc(n(C)n1)CSc1cc(c3ccccc3c1)OCCCc1c(C(=O)O)n(C)c3c-2c(Cl)ccc13 [AZD5991] + Nc1ccn([C@@H]2O[C@H](CO)[C@@H](O)C2(F)F)c(=O)n1 [Gemcitabine] (first compound max 1 µM, 7x7, partner max 0.3 µM) | 1 | 0.688 | 0.923 | 1 | 0.935 | 0.486 | 0.546 | 0.519 | 0.755
C=CCn1c(=O)c2cnc(Nc3ccc(N4CCN(C)CC4)cc3)nc2n1-c1cccc(C(C)(C)O)n1 [AZD1775] + CCc1c2c(nc3ccc(O)cc13)-c1cc3c(c(=O)n1C2)COC(=O)[C@]3(O)CC [SN-38] (first compound max 1 µM, partner max 0.3 µM) | 0.94 | 0.703 | 0.941 | 1 | 0.985 | 0.86 | 0.941 | 0.685 | 0.513
Cc1c2c(nn1C)CSCc1cc(n(C)n1)CSc1cc(c3ccccc3c1)OCCCc1c(C(=O)O)n(C)c3c-2c(Cl)ccc13 [AZD5991] + CC(=O)O[C@H]1C(=O)[C@@]2(C)[C@H]([C@H](OC(=O)c3ccccc3)[C@]3(O)C[C@H](OC(=O)[C@H](O)[C@@H](NC(=O)c4ccccc4)c4ccccc4)C(C)=C1C3(C)C)[C@]1(OC(C)=O)CO[C@@H]1C[C@@H]2O [Paclitaxel] (first compound max 1 µM, 7x7, partner max 3 µM) | 1 | 0.59 | 0.666 | 1 | 0.965 | 0.912 | 0.554 | 0.401 | 0.794
O=C(c1cc(Cc2n[nH]c(=O)c3ccccc23)ccc1F)N1CCN(C(=O)C2CC2)CC1 [Olaparib] + CC1(C)CCC(CN2CCN(c3ccc(C(=O)NS(=O)(=O)c4ccc(NCC5CCOCC5)c([N+](=O)[O-])c4)c(Oc4cnc5[nH]ccc5c4)c3)CC2)=C(c2ccc(Cl)cc2)C1 [Venetoclax] (first compound max 10 µM, 7x7, partner max 1 µM) | 0.462 | 0.053 | 0.242 | 0.835 | 0.86 | 0.235 | 0.176 | 0.113 | 0.243
O=C(c1cc(Cc2n[nH]c(=O)c3ccccc23)ccc1F)N1CCN(C(=O)C2CC2)CC1 [Olaparib] + Cc1c2c(nn1C)CSCc1cc(n(C)n1)CSc1cc(c3ccccc3c1)OCCCc1c(C(=O)O)n(C)c3c-2c(Cl)ccc13 [AZD5991] (first compound max 10 µM, 7x7, partner max 1 µM) | 0.924 | 0.0485 | 0.192 | 0.903 | 0.879 | 0.293 | 0.13 | 0.0979 | 0.643
